Assay results from US20240398999A1, “DC BIOMIMETIC MEMBRANE NANOPARTICLE LOADED WITH NIR-II AIE DYE, PREPARATION METHOD THEREFOR AND USE THEREOF” (SHENZHEN INSTITUTES OF ADVANCED TECHNOLOGY CHINESE ACADEMY …, priority 2023, published 2024).

Key:
[1] = 808 nm laser, 3 min irradiation per cycle
Procedure: The nanoparticle solution filled with the BPBBT dot was fixed and irradiated by using an 808 nm laser. Meanwhile, the temperature of the solution was monitored in real time by using a thermal imaging camera. The laser was turned off after 3 min of irradiation, and the laser was turned on again when the temperature was recovered to the initial temperature. In this way, 5 cycles were repeated, and whether the highest temperature of each cycle was the same or not was observed so as to judge the stability of photothermal conversion.

[2] = BPBBT solution in 5% THF at the same concentration (50 μM); stated as known; cited from earlier work

## 4,8-bis[4-(N, N-bis(4-octyloxyphenyl)amino)phenyl]benzo[1,2-c:4,5-c′]bis([1,2,5]thiadiazole) [BPBBT]
[1]
  maximum temperature: about 48 °C
[2]
  photothermal conversion efficiency: 22%
